Source: patent US12721815B2, “Freeze-dried exosome composition and uses thereof” (AVECIN-Biopharma Oy, priority 2022, dated 2026)

What was measured:
[1] = Freeze-drying apple exosomes using trehalose, LMW HA and their combination (TEM, NTA); assay type: physicochemical; details: rehydrated after freeze-drying, FIG. 5
Procedure: For TEM imaging, exosomes are fixed with 4.0% paraformaldehyde (PFA) in sodiumphosphate buffer and stained with 2% neutral uranyl acetate with embedding in uranyl acetate and methylcellulose mixture. Exosomes are viewed with transmission EM using Jeol JEM-1400 (Jeol Ltd., Tokyo, Japan) operating at 80 kV. Images are taken with Gatan Orius SC 1000B CCD-camera (Gatan Inc., USA) with 4008×2672 px image size and no binning.
Particle number and size distribution of the exosome is measured by NTA instrument LM14C (NanoSight LTD., London, UK) equipped with blue (404 nm, 70 mW) laser and sCMOS camera. Data are analysed with Nanosight software v3.0, using threshold 5 and gain 10.
To test the preservation of exosome functionality and integrity during the lyophilization process, two cryoprotectants (trehalose and LMW HA) in four different cryoprotectant combinations were used, namely: 50 mM trehalose, 100 mM trehalose, 5% LMW HA, and 50 mM trehalose +2.5% LMW HA. Lyophilization solutions were prepared using PBS. The overall osmolality of the lyophilization solutions was maintained at 290 mOsm/kg. For the freeze-drying experiments, isolated exosomes (10^10-10^11 particle/ml) were suspended in cryoprotectant solution. 5 ml of each sample was prepared. Each solution was divided into 3 polypropylene microcentrifuge tubes, each tube containing 1.2 ml of lyophilization solution supplied with exosomes. […]

[2] = Lyophilization of exosomes with different cryoprotectants of Table 1 (BCA kit, TEM, NTA); assay type: physicochemical; details: FIG. 4
Procedure: The protein concentration of isolated exosomes is measured by BCA protein assay kit. Isolated exosomes were characterized by fluorescent staining, Transmission electron microscopy (TEM), and Nanoparticle Tracking Analysis (NTA).
Different cryoprotectant components namely trehalose, mannitol, sorbitol, sucrose, glucose and HA (both low Mw (LW) and high Mw (HMW)), either alone or in combination with HA or glycine (see Table 1) were tested for exosome viability outcome after lyophilization. PBS (290 mOsm/kg) was used as the solvent. The LMW HA used for the examples described herein is LMW HA having a Mw lower than 10 kDa. Isolated exosomes (1 mg/ml) were dissolved in PBS solution and then mixed with cryoprotectant solution in the ratio of 1 part exosomes to 1, 3, 5, or 10 parts of cryoprotectant.
Cryoprotectant solutions were prepared using phosphate-buffered saline (PBS) while the overall osmolality of the lyophilization solutions was maintained at 290 mOsm/kg. Isolated exosomes (10^10-10^11 particle/ml) were suspended in cryoprotectant solution ranging from 1 part of exosome suspension with 3 parts of cryoprotectant solution, to, 3 parts of exosome suspension with 1 part of cryoprotectant solution. Exosomes were lyophilized and then morphology of retrieved exosomes was visualized by TEM while size and concentration were measured by NTA (see FIG. 4). […]

human dermal fibroblasts [3] = assay: Wound scratch assay (relative wound density); assay type: cell-based; details: FIG. 6(a)
Procedure: Human dermal fibroblasts are seeded in 96 well plates at 2.4×10^4 cells/well. A cell-free area is then created in a confluent monolayer by physical exclusion through mechanical damage using a […] pipette tip. The culture medium is replaced immediately with a fresh 0.5% EV-free serum-supplemented culture medium containing 100 μg/ml of each exosome preparation tested. Three positions per scratch are imaged for 48 hours. Relative wound density is analysed by measuring the wound area over the healing time. All scratch assays are performed in triplicate.

human dermal fibroblasts [4] = assay: MTT assay (fibroblast proliferation); assay type: cell-based; details: FIG. 6(b)
Procedure: The effect of the exosomes on the proliferation of human dermal fibroblasts was measured by a 3-[4.5-Dimethylthiazol-2-yl]-2.5-diphenyltetrazolium bromide ([…]; Life technologies) assay. Briefly, human dermal fibroblast cells are seeded in 96-well plates at an initial density of 5×10^3 cells/well for 24 h and then are treated with 100 μg/mL of exosomes for 48 hours. Cells are incubated with 0.5 mg/mL of MTT for 3-5 h and then 100 μl DMSO is added to each well and the optical density is measured at 540 nm.

human dermal fibroblasts [5] = assay: Collagen production, human collagen type I ELISA kit; assay type: cell-based; details: incubated 48 h, FIG. 6(c)
Procedure: Also, collagen production was measured using a human collagen type I ELIZA kit. Human dermal fibroblasts were incubated with the exosome samples for 48 h. 100 μl of cell culture media was collected from each sample and incubated with 100 μl of biotinylated detection antibody for 1 h at 37° C. Samples were then washed and incubated with 100 μl of horseradish peroxidase (HRP) conjugate working solution. Stop solution was added and optical density was measured at 450 nm with a Plate Reader.

aggregation, size and concentration of lyophilized apple exosomes (result in words) [1] | Compound | exosome concentration, morphology, aggregation after lyophilization (result in words) [2] | relative wound density, lyophilised versus non-lyophilised exosomes (result in words) (human dermal fibroblasts [3]) | fibroblast proliferation, lyophilised versus non-lyophilised exosomes (result in words) (human dermal fibroblasts [4]) | collagen production by fibroblasts (result in words) (human dermal fibroblasts [5])
no exosome aggregation | OC[C@H]1O[C@H](O[C@H]2O[C@H](CO)[C@@H](O)[C@H](O)[C@H]2O)[C@H](O)[C@@H](O)[C@@H]1O [trehalose, Trehalose] | best results as a single component cryoprotectant |  |  | 
 | Hyaluronic acid (LMW) [hyaluronic acid at low-molecular-weight] |  | positive role | positive role | positive role
